Experimental data: ChEMBL document CHEMBL1201862, “PubChem BioAssay data set” (2004)
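Dose response: 5 concentrations. Exposure: 48 h. Format: 96-well plates. Endpoint: linear interpolation; highest concentration if not reached. Here, GI50 denotes the concentration required for 50% inhibition of growth.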 Activity calls are given as the source filed them. No stated cut-off is given here; in the data, active = GI50 up to about 1.1 µM and inactive = higher.

What was measured:
Test in all cases: inhibition of tumour cell growth, NCI panel, 48 h
[1] = tested on: SF-539
[2] = tested on: T47D
[3] = tested on: UO-31
[4] = tested on: K562
[5] = tested on: CAKI-1
[6] = tested on: NCI-H460
[7] = tested on: HCT-116
[8] = tested on: HCT-15
[9] = tested on: UACC-62
[10] = tested on: SN12C
[11] = tested on: ACHN
[12] = tested on: SF-295
[13] = tested on: SNB-75
[14] = tested on: DU-145
[15] = tested on: SK-MEL-5
[16] = tested on: LOX IMVI
[17] = tested on: M14
[18] = tested on: PC-3
[19] = tested on: NCI-H226
[20] = tested on: HT-29
[21] = tested on: SNB-19
[22] = tested on: NCI-H23
[23] = tested on: SK-OV-3
[24] = tested on: OVCAR-5
[25] = tested on: HL-60
[26] = tested on: SK-MEL-2
[27] = tested on: COLO 205
[28] = tested on: Hs-578T
[29] = tested on: IGROV-1
[30] = tested on: OVCAR-3
[31] = tested on: MDA-N
[32] = tested on: SF-268
[33] = tested on: MDA-MB-435
[34] = tested on: SW-620
[35] = tested on: UACC-257
[36] = tested on: OVCAR-8
[37] = tested on: MOLT-4
[38] = tested on: NCI-H522
[39] = tested on: MDA-MB-231
[40] = tested on: A549
[41] = tested on: HOP-62
[42] = tested on: U-251
[43] = tested on: 786-0
[44] = tested on: KM12
[45] = tested on: SR
[46] = tested on: NCI/ADR-RES
[47] = tested on: MCF7
[48] = tested on: RXF 393
[49] = tested on: TK-10
[50] = tested on: EKVX
[51] = tested on: SK-MEL-28
[52] = tested on: Malme-3M
[53] = tested on: A498
[54] = tested on: HCC 2998
[55] = tested on: HOP-92
[56] = tested on: CCRF-CEM
[57] = tested on: RPMI-8226
[58] = tested on: OVCAR-4

`CO/N=C(/C)c1cccc(Nc2nc3ccccc3c3[nH]c4ccccc4c23)c1` was tested, and the GI50 [1] was 14.4 µM (inactive), the GI50 [2] was 1.84 µM (inactive) and the GI50 [3] was 10.1 µM (inactive). For the same compound, the GI50 [4] was 5.97 µM (inactive), the GI50 [5] was 10.5 µM (inactive) and the GI50 [6] was 2.52 µM (inactive). The GI50 [7] was 3.16 µM (inactive), the GI50 [8] was 5.92 µM and the GI50 [9] was 6.03 µM (inactive). The GI50 [10] was 11.5 µM (inactive), the GI50 [11] was 3.57 µM (inactive) and the GI50 [12] was 3.5 µM (inactive). For the same compound, the GI50 [13] was 0.302 µM (active), the GI50 [14] was 12.5 µM (inactive) and the GI50 [15] was 5.62 µM (inactive). The GI50 [16] was 10.6 µM (inactive), the GI50 [17] was 7.69 µM (inactive) and the GI50 [18] was 10.4 µM (inactive). The GI50 [19] was 13.7 µM (inactive), the GI50 [20] was 2.49 µM (inactive) and the GI50 [21] was 12.9 µM (inactive). For the same compound, the GI50 [22] was 10.3 µM (inactive), the GI50 [23] was 17.1 µM (inactive) and the GI50 [24] was 6.82 µM (inactive). The GI50 [25] was 12.7 µM (inactive), the GI50 [26] was 10.7 µM (inactive) and the GI50 [27] was 7.33 µM (inactive). For the same compound, the GI50 [28] was 13.8 µM (inactive), the GI50 [29] was 13.5 µM (inactive) and the GI50 [30] was 5.7 µM (inactive). For the same compound, the GI50 [31] was 8.3 µM (inactive), the GI50 [32] was 12.3 µM (inactive) and the GI50 [33] was 7.41 µM (inactive). For the same compound, the GI50 [34] was 10.1 µM (inactive), the GI50 [35] was 13.3 µM (inactive) and the GI50 [36] was 6.22 µM (inactive). The GI50 [37] was 3.96 µM (inactive), the GI50 [38] was 2.99 µM (inactive) and the GI50 [39] was 12.1 µM (inactive). For the same compound, the GI50 [40] was 8.75 µM (inactive), the GI50 [41] was 9.66 µM (inactive) and the GI50 [42] was 13.5 µM (inactive). For the same compound, the GI50 [43] was 8.55 µM (inactive), the GI50 [44] was 3.99 µM (inactive) and the GI50 [45] was 5.86 µM (inactive). For the same compound, the GI50 [46] was 8.97 µM (inactive) and the GI50 [47] was 5.16 µM (inactive).
In the case of `N=C(N)N/N=C/c1cc(Cl)cc(Cl)c1O`, the GI50 [1] is reported as 37.3 µM (inactive), the GI50 [2] is reported as 32.2 µM (inactive) and the GI50 [3] is reported as 29.7 µM (inactive). The GI50 [48] was 58.5 µM (inactive), the GI50 [4] was 48 µM (inactive) and the GI50 [49] was 69 µM (inactive). For the same compound, the GI50 [50] was 38.9 µM (inactive), the GI50 [5] was 38.7 µM (inactive) and the GI50 [6] was 69.5 µM (inactive). For the same compound, the GI50 [7] was 57 µM (inactive), the GI50 [8] was 26.1 µM and the GI50 [9] was 41 µM (inactive). The GI50 [10] was 49.3 µM (inactive), the GI50 [11] was 56.6 µM (inactive) and the GI50 [12] was 58.1 µM (inactive). The GI50 [13] was 30.2 µM (inactive), the GI50 [14] was 75 µM (inactive) and the GI50 [15] was 37.4 µM (inactive). For the same compound, the GI50 [51] was 86.9 µM (inactive), the GI50 [16] was 51.4 µM (inactive) and the GI50 [17] was 54.5 µM (inactive). For the same compound, the GI50 [18] was 36.7 µM (inactive), the GI50 [19] was 46.6 µM (inactive) and the GI50 [20] was 62.1 µM (inactive). For the same compound, the GI50 [21] was 94.2 µM (inactive), the GI50 [22] was 56.5 µM (inactive) and the GI50 [23] was > 100 µM (inactive). The GI50 [24] was 78.2 µM (inactive), the GI50 [25] was 33.2 µM (inactive) and the GI50 [26] was 34.1 µM (inactive). For the same compound, the GI50 [52] was 42.3 µM (inactive), the GI50 [53] was 51.1 µM (inactive) and the GI50 [54] was 15.8 µM (inactive). The GI50 [27] was 34.2 µM (inactive), the GI50 [28] was 55.7 µM (inactive) and the GI50 [29] was > 100 µM (inactive). The GI50 [55] was 65 µM (inactive), the GI50 [30] was 67.3 µM (inactive) and the GI50 [31] was 71.1 µM (inactive). The GI50 [32] was 45.9 µM (inactive), the GI50 [33] was 53.5 µM (inactive) and the GI50 [34] was 97.5 µM (inactive). The GI50 [56] was 43.4 µM (inactive), the GI50 [35] was 45.3 µM (inactive) and the GI50 [36] was > 100 µM (inactive). The GI50 [37] was 50.4 µM (inactive), the GI50 [38] was 56.5 µM (inactive) and the GI50 [39] was 62.7 µM (inactive). The GI50 [40] was > 100 µM (inactive), the GI50 [41] was > 100 µM (inactive) and the GI50 [57] was 57.3 µM (inactive). The GI50 [42] was 48.5 µM (inactive), the GI50 [43] was 76.7 µM (inactive) and the GI50 [58] was 46.9 µM (inactive). The GI50 [44] was 45.1 µM (inactive), the GI50 [46] was 35.5 µM (inactive) and the GI50 [47] was 44.6 µM (inactive).
With `COc1ccc(N2C(=O)C3c4[nH]c5ccc(F)cc5c4C4CCC(C(C)(C)C)CC4C3C2=O)cc1` (configuration not stated) the GI50 [1] was 6.35 µM (inactive), the GI50 [2] was 9.25 µM (inactive) and the GI50 [3] was > 10 µM (inactive). The GI50 [48] was > 10 µM (inactive), the GI50 [49] was 9.38 µM (inactive) and the GI50 [50] was > 10 µM (inactive). For the same compound, the GI50 [5] was > 10 µM (inactive), the GI50 [6] was 5.07 µM (inactive) and the GI50 [7] was 4.14 µM (inactive). The GI50 [8] was greater than 10 µM, the GI50 [9] was 7.43 µM (inactive) and the GI50 [10] was > 10 µM (inactive). For the same compound, the GI50 [11] was > 10 µM (inactive), the GI50 [12] was 6.04 µM (inactive) and the GI50 [13] was 1.84 µM (inactive). For the same compound, the GI50 [14] was > 10 µM (inactive), the GI50 [15] was > 10 µM (inactive) and the GI50 [51] was > 10 µM (inactive). For the same compound, the GI50 [17] was 7.85 µM (inactive), the GI50 [18] was 7.33 µM (inactive) and the GI50 [19] was > 10 µM (inactive). The GI50 [20] was 6.28 µM (inactive), the GI50 [21] was > 10 µM (inactive) and the GI50 [22] was > 10 µM (inactive). The GI50 [23] was > 10 µM (inactive), the GI50 [24] was > 10 µM (inactive) and the GI50 [25] was > 10 µM (inactive). The GI50 [26] was > 10 µM (inactive), the GI50 [52] was > 10 µM (inactive) and the GI50 [53] was > 10 µM (inactive). For the same compound, the GI50 [54] was > 10 µM (inactive), the GI50 [27] was > 10 µM (inactive) and the GI50 [28] was 2.81 µM (inactive). The GI50 [29] was > 10 µM (inactive), the GI50 [30] was > 10 µM (inactive) and the GI50 [31] was > 10 µM (inactive). For the same compound, the GI50 [32] was 8.28 µM (inactive), the GI50 [33] was > 10 µM (inactive) and the GI50 [34] was 7.26 µM (inactive). For the same compound, the GI50 [56] was 7.13 µM (inactive), the GI50 [36] was 7.8 µM (inactive) and the GI50 [37] was > 10 µM (inactive). The GI50 [38] was 6.87 µM (inactive), the GI50 [39] was > 10 µM (inactive) and the GI50 [40] was 7.1 µM (inactive). For the same compound, the GI50 [41] was 7.23 µM (inactive), the GI50 [57] was > 10 µM (inactive) and the GI50 [42] was 5.02 µM (inactive). The GI50 [58] was 6.05 µM (inactive), the GI50 [44] was > 10 µM (inactive) and the GI50 [45] was > 10 µM (inactive). For the same compound, the GI50 [46] was 9.08 µM (inactive) and the GI50 [47] was > 10 µM (inactive).
